In brackets after ≈: the same amount, converted by molar mass. Starred links: 1 amine or outer side, 2 acyl side, 3 side chain; linkers in the order of their positions; H or OH if unused. Non-standard residues stand in square brackets, D forms with d. Residues, ends and D or L forms follow the SMILES beside them. Gly(N-(CH2)3-guanidino) = N=C(N)NCCCNCC(=O)O; X1 = N=C(N)NCCN(CC(=O)[*:2])[*:1]; NhArg = N=C(N)NCCCCNCC(=O)O
How the values were obtained:
[1] = Toxicity in human erythrocytes assessed as hemolytic activity at 30 uM after 60 mins; assay type: cell-based, Erythrocyte; settings: read-out: Activity
[2] = Toxicity in human erythrocytes assessed as hemolytic activity at 300 uM after 60 mins; assay type: cell-based, Erythrocyte; settings: read-out: Activity
Klebsiella pneumoniae = assay: Antimicrobial activity against Klebsiella pneumoniae 22 after 18 hrs by broth microdilution susceptibility test; assay type: functional; settings: Klebsiella pneumoniae, 22, 18 h
[3] = test system: Salmonella enterica subsp. enterica; assay: Antimicrobial activity against Salmonella enteritidis D5 after 18 hrs by broth microdilution susceptibility test; assay type: functional, Salmonella enterica subsp. enterica serovar Enteritidis; settings: D5, 18 h
[4] = Membrane permeabilization in eukaryotic membrane model consisting of single unilamellar vesicle of L-alpha-phosphatidylcholine-cholesterol assessed as 5(6)-carboxyfluorescein release at high peptide-to-lipid ratio after 50 mins by fluorescence assay; assay type: ADME, cell membranes
[5] = test system: Salmonella enterica subsp. enterica; assay: Antimicrobial activity against Salmonella enteritidis PD1 after 18 hrs by broth microdilution susceptibility test; assay type: functional, Salmonella enterica subsp. enterica serovar Enteritidis; settings: PD1, 18 h
Escherichia coli [6] = assay: Antimicrobial activity against Escherichia coli O18K1H7 after 18 hrs by broth microdilution susceptibility test; assay type: functional; settings: O18K1H7, 18 h
[7] = test system: Salmonella enterica subsp. enterica; assay: Antimicrobial activity against Salmonella Typhimurium ATCC 14028 after 18 hrs by broth microdilution susceptibility test; assay type: functional, Salmonella enterica subsp. enterica serovar Typhimurium; settings: ATCC 14028, 18 h
Escherichia coli [8] = assay: Antimicrobial activity against Escherichia coli ML35 after 18 hrs by broth microdilution susceptibility test; assay type: functional; settings: ML35, 18 h
[9] = Membrane permeabilization in eukaryotic membrane model consisting of single unilamellar vesicle of L-alpha-phosphatidylcholine-cholesterol assessed as 5(6)-carboxyfluorescein release at high peptide-to-lipid ratio after 20 mins by fluorescence assay; assay type: ADME, cell membranes
Escherichia coli [10] = assay: Antimicrobial activity against Escherichia coli ATCC 25922 after 18 hrs by broth microdilution susceptibility test; assay type: functional; settings: ATCC 25922, 18 h
[11] = Chemical stability assessed as compound degradation at 2 mg/mL within 30 mins by HPLC and ESI-MS analysis in presence of trypsin; assay type: physicochemical; settings: isolated protein, 0.5 h

SMILES	MIC (Klebsiella pneumoniae) [µM]	MIC [3] [µM]	Activity [4]	MIC [5] [µM]	MIC (Escherichia coli [6]) [µM]	MIC [7] [µM]	MIC (Escherichia coli [8]) [µM]	Activity [9]	MIC (Escherichia coli [10]) [µM]	Stability [11]	hemolysis at 1 h, 30 µM [1] [%]	hemolysis at 1 h, 300 µM [2] [%]
CC[C@H](C)[C@H](NC(=O)[C@H](Cc1ccc(O)cc1)NC(=O)[C@@H](NC(=O)[C@@H]1CCCN1C(=O)[C@H](CCCNC(=N)N)NC(=O)[C@H](CC(N)=O)NC(=O)[C@H](CC(N)=O)NC(=O)CN)C(C)C)C(=O)N1CCC[C@H]1C(=O)N[C@@H](CCC(N)=O)C(=O)N1CCC[C@H]1C(=O)N[C@@H](CCCNC(=N)N)C(=O)N1CCC[C@H]1C(=O)N1CCC[C@H]1C(=O)N[C@@H](Cc1cnc[nH]1)C(=O)N1CCC[C@H]1C(=O)N[C@@H](CCCNC(=N)N)C(=O)N[C@@H](CC(C)C)C(=O)O [APIDAECIN]	64 (≈ 135 µg/mL)	8 (≈ 16.9 µg/mL)	Not Active	8 (≈ 16.9 µg/mL)	8 (≈ 16.9 µg/mL)	4 (≈ 8.43 µg/mL)	8 (≈ 16.9 µg/mL)	Not Active	8 (≈ 16.9 µg/mL)	Unstable	≤ 2	1.19
CC[C@H](C)[C@H](NC(=O)[C@H](Cc1ccc(O)cc1)NC(=O)[C@@H](NC(=O)[C@H](CCCNC(=N)N)NC(=O)[C@H](CC(N)=O)NC(=O)[C@H](CC(N)=O)NC(=O)CN)C(C)C)C(=O)N1CCC[C@H]1C(=O)N[C@@H](CCC(N)=O)C(=O)N1CCC[C@H]1C(=O)N[C@@H](CCCNC(=N)N)C(=O)N1CCC[C@H]1C(=O)N[C@@H](Cc1cnc[nH]1)C(=O)N1CCC[C@H]1C(=O)N[C@@H](CCCNC(=N)N)C(=O)N[C@@H](CC(C)C)C(=O)O (H-GNNRVYIPQPRPHPRL-OH)	> 128	–	Not Active	–	–	> 128	–	Not Active	> 128	–	≤ 2	–
CC[C@H](C)[C@H](NC(=O)[C@H](Cc1ccc(O)cc1)NC(=O)[C@@H](NC(=O)[C@@H]1CCCN1C(=O)[C@H](CCCNC(=N)N)NC(=O)[C@H](CC(N)=O)NC(=O)[C@H](CC(N)=O)NC(=O)CN)C(C)C)C(=O)N1CCC[C@H]1C(=O)N[C@@H](CCC(N)=O)C(=O)N1CCC[C@H]1C(=O)N[C@@H](CCCNC(=N)N)C(=O)N1CCC[C@H]1C(=O)N1CCC[C@H]1C(=O)N[C@@H](Cc1cnc[nH]1)C(=O)N1CCC[C@H]1C(=O)N(CCNC(=N)N)CC(=O)N[C@@H](CC(C)C)C(=O)O (H-GNNRPVYIPQPRPPHP[X1]L-OH)	> 128	> 128	Not Active	> 128	> 128	> 128	> 128	Not Active	> 128	–	≤ 2	0.62

The next lines start with results.

MIC (Klebsiella pneumoniae) [µM]	MIC [3] [µM]	Activity [4]	MIC [5] [µM]	MIC (Escherichia coli [6]) [µM]	MIC [7] [µM]	MIC (Escherichia coli [8]) [µM]	Activity [9]	MIC (Escherichia coli [10]) [µM]	Stability [11]	SMILES	hemolysis at 1 h, 30 µM [1] [%]	hemolysis at 1 h, 300 µM [2] [%]
> 128	16 (≈ 33.7 µg/mL)	Not Active	32 (≈ 67.5 µg/mL)	16 (≈ 33.7 µg/mL)	16 (≈ 33.7 µg/mL)	16 (≈ 33.7 µg/mL)	Not Active	16 (≈ 33.7 µg/mL)	–	CC[C@H](C)[C@H](NC(=O)[C@H](Cc1ccc(O)cc1)NC(=O)[C@@H](NC(=O)[C@@H]1CCCN1C(=O)[C@H](CCCNC(=N)N)NC(=O)[C@H](CC(N)=O)NC(=O)[C@H](CC(N)=O)NC(=O)CN)C(C)C)C(=O)N1CCC[C@H]1C(=O)N[C@@H](CCC(N)=O)C(=O)N1CCC[C@H]1C(=O)N(CCCNC(=N)N)CC(=O)N1CCC[C@H]1C(=O)N1CCC[C@H]1C(=O)N[C@@H](Cc1cnc[nH]1)C(=O)N1CCC[C@H]1C(=O)N[C@@H](CCCNC(=N)N)C(=O)N[C@@H](CC(C)C)C(=O)O (H-GNNRPVYIPQP[Gly(N-(CH2)3-guanidino)]PPHPRL-OH)	≤ 2	2
> 128	64 (≈ 130 µg/mL)	Not Active	64 (≈ 130 µg/mL)	32 (≈ 64.8 µg/mL)	32 (≈ 64.8 µg/mL)	16 (≈ 32.4 µg/mL)	Not Active	32 (≈ 64.8 µg/mL)	–	CC[C@H](C)[C@H](NC(=O)[C@H](Cc1ccc(O)cc1)NC(=O)[C@@H](NC(=O)[C@@H]1CCCN1C(=O)[C@H](CCCNC(=N)N)NC(=O)[C@H](CC(N)=O)NC(=O)[C@H](CC(N)=O)NC(=O)CN)C(C)C)C(=O)N1CCC[C@H]1C(=O)N[C@@H](CCC(N)=O)C(=O)N1CCC[C@H]1C(=O)N(CCCCNC(=N)N)CC(=O)N1CCC[C@H]1C(=O)N[C@@H](Cc1cnc[nH]1)C(=O)N1CCC[C@H]1C(=O)N[C@@H](CCCNC(=N)N)C(=O)N[C@@H](CC(C)C)C(=O)O (H-GNNRPVYIPQP[NhArg]PHPRL-OH)	≤ 2	1.31
